Results on 27 compounds are retold here after US10494360B2, “Inhibitors of indoleamine 2,3-dioxygenase” (NETHERLANDS TRANSLATIONAL RESEARCH CENTER B.V., priority 2016, dated 2019).

The IC50 is the concentration at which inhibition is half-maximal.

Several values for one entry are separate records, joined by “and”; a condition that tells them apart may be missing. Identical values can stand only once. Some results are limits rather than exact numbers.

In assay [1] the target is T1, IDO1 (Homo sapiens, UniProt P14902). The assay can be described thus: Cell-based assay for IDO1 in interferon-γ stimulated A-375 melanoma cells. The following applies: interferon-γ stimulation, 48 hours, read-out: IC50, cell-based IDO1 (NFK levels). As for the experimental part:
The biological activity of IDO1 inhibitors can be measured by applying above detection methods to cells that are treated with test compound. The expression of IDO1 can be induced in many different cell lines by stimulation with IFNγ (Takikawa, O., et al., J. Biol. Chem. 263: 2041; 1988; Seegers, et al.), or IDO1 can be expressed in cells that lack endogenous IDO1 by transfection of an expression vector containing IDO1 cDNA.
A-375 melanoma cells were purchased from LGC Standards GmbH (Wesel, Germany) and cultured in DMEM tissue culture medium (Life Technologies, Bleiswijk, The Netherlands), supplemented with 10% (v/v) bovine calf serum. Compounds were dissolved in DMSO and diluted in DMEM. Final DMSO concentration in the assay was 0.4% (v/v). Eight thousand cells per well in 35 μl were seeded in a black 384-well tissue plate (cat. No. 781086; Greiner Bio-One GmbH, Frickenhausen, Germany) and allowed to adhere by incubation at 37° C., 95% humidity, and 5% CO2 overnight. Then, 5 μl of compound solution was added to the cells 1 hour prior to stimulation with 5 μl of 500 ng/ml interferon-γ (R&D Systems, Minneapolis, Minn., USA) diluted in DMEM medium. At the same time, 5 μl of L-tryptophan in 20 mM Hepes buffer pH 7.4 was added. Incubation was continued for 48 hours. To determine NFK levels, 12 μl NFK Green™ (NTRC, Oss, The Netherlands) was added to each well, and the plate was sealed and incubated for 4 hours at 37° C. Fluorescence was measured on an EnVision multimode reader (Perkin Elmer, Waltham, Mass., USA). IC50 were calculated using XLfit™ software (ID Business Solutions, Ltd., Surrey, U.K.).

The target in assay [2] is T1, IDO1. Nature of the assay: Biochemical IDO1 assay (NFK GreenScreen). Also noted: Recombinant full-length IDO1 (Seegers, N., et al.) and all other assay components were diluted in IDO1 reaction buffer; made in house. The following applies: for IC50: recombinant full-length IDO1 25 nM, L-tryptophan 100 μM, NFK Green detection, read-out: IC50, inhibitory potency on IDO1; for relative activity of separated isomers: less active / most active isomer of the pair, assay not given. On the procedure: Inhibition of IDO1 activity can be measured by determining the enzymatic conversion of L-tryptophan into N-formylkynurenine (NFK) in a reaction mixture containing IDO1 and test compound. The formation of NFK can be detected directly by, for instance, high-performance liquid chromatography (HPLC) methods, or by intrinsic fluorescence.
Compounds were serially diluted in dimethylsulfoxide (DMSO) and finally in IDO1 reaction buffer, consisting of 50 mM NaH2PO4, pH7.0, supplemented with 0.05% Tween-20 (cat. No. P7949; Sigma Aldrich) and 1% glycerol. Recombinant full-length IDO1 (Seegers, N., et al.) and all other assay components were diluted in IDO1 reaction buffer. […] Subsequently, 10 μl of 0.4 mM of the substrate L-tryptophan was added, i.e., the final concentration of L-tryptophan was 100 μM. The DMSO concentration in the assay was 0.3%. […] Incubation was continued for 60 min at room temperature. Then, 10 μl of NFK Green™ (NTRC, Oss, The Netherlands) was added, the plate was sealed, and the reaction was developed for 3 hours at 37° C. To determine the production of N-formyl kynurenine (NFK), the seal was removed and fluorescence was read on an EnVision multimode reader (Perkin Elmer, Waltham, Mass., USA). IC50 were calculated using XLfit™ software (ID Business Solutions, Ltd., Surrey, U.K.).

T1 sequence (P14902 whole entry, species assumed): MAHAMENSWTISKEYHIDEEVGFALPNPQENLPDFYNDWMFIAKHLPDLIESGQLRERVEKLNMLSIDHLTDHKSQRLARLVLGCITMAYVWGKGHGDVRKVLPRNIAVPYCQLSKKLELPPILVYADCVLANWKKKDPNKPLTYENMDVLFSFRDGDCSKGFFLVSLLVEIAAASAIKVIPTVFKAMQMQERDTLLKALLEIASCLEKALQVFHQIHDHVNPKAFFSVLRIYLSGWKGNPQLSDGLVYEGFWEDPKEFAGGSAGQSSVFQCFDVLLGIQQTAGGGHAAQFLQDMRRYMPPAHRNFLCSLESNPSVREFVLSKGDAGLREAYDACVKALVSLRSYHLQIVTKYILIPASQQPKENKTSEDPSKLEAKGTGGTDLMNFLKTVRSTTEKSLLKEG

In the case of `O=C1CN(C(=O)c2ccccc2Cl)C(c2cccc(Br)c2)N1O` (stereo not shown) [Example 34, 2-(3-Bromophenyl)-1-(2-chlorobenzoyl)-3-hydroxy-imidazolidin-4-one], the IC50 is less than 5 µM on IDO1 [1] and no more than 1 µM on IDO1 [2].

For `O=C1CN(C(=O)c2c(F)cccc2F)C(c2cccc(Br)c2)N1O` (stereo not shown) [Example 27, 2-(3-Bromophenyl)-1-(2,6-difluorobenzoyl)-3-hydroxy-imidazolidin-4-one], the half-inhibitory concentration (IC50) on IDO1 [1] is less than 5 µM; on IDO1 [2], no more than 1 µM.

`O=C1CN(C(=O)c2c(F)cccc2Cl)C(c2ccc(F)c(Cl)c2)N1O` (stereo not shown) [Example 53, 1-(2-Chloro-6-fluoro-benzoyl)-2-(3-chloro-4-fluoro-phenyl)-3-hydroxy-imidazolidin-4-one]: the concentration for half-maximal inhibition (IC50) at IDO1 [1] is less than 5 µM; on IDO1 [2] it was no more than 1 µM.

Turning to `O=C1CN(C(=O)c2c(F)cccc2Cl)C(c2ccc(F)c(Br)c2)N1O` (stereo not shown) [Example 45, 2-(3-Bromo-4-fluoro-phenyl)-1-(2-chloro-6-fluoro-benzoyl)-3-hydroxy-imidazolidin-4-one], the results for the half-inhibitory concentration (IC50) on IDO1 [1] and at IDO1 [2] were less than 5 µM and no more than 1 µM, respectively.

Consider `O=C1CN(C(=O)c2c(F)cc(F)cc2F)C(c2cccc(Br)c2)N1O` (stereo not shown) [Example 82, 2-(3-Bromophenyl)-3-hydroxy-1-(2,4,6-trifluorobenzoyl)imidazolidin-4-one], for which the concentration for half-maximal inhibition (IC50) at IDO1 [1] was less than 5 µM; at IDO1 [2], no more than 1 µM.

As to `O=C1CN(C(=O)c2c(F)cccc2F)C(c2cccc([N+](=O)[O-])c2)N1O` (stereo not shown) [Example 67, 1-(2,6-Difluorobenzoyl)-3-hydroxy-2-(3-nitrophenyl)imidazolidin-4-one], the figures for the half-inhibitory concentration (IC50) on IDO1 [1] and on IDO1 [2] were less than 5 µM and no more than 1 µM, respectively.

As for `CC(C)C#Cc1cc(F)c(C(=O)N2CC(=O)N(O)C2c2cccc(Br)c2)c(F)c1` (stereo not shown) [Example 107, 2-(3-Bromophenyl)-1-[2,6-difluoro-4-(3-methylbut-1-ynyl)benzoyl]-3-hydroxy-imidazolidin-4-one], the IC50 at IDO1 [1] is less than 5 µM; on IDO1 [2], no more than 1 µM.

In the case of `O=C1CN(Cc2c(F)cccc2F)C(c2cccc(Br)c2)N1O` (stereo not shown) [Example 127, 2-(3-Bromophenyl)-1-[(2,6-difluorophenyl)methyl]-3-hydroxy-imidazolidin-4-one], the results for the concentration for half-maximal inhibition (IC50) at IDO1 [1] and at IDO1 [2] were less than 5 µM and no more than 1 µM, respectively.

Turning to `O=C1CN(C(=O)c2ccccc2F)C(c2cccc(C(F)(F)F)c2)N1O` (stereo not shown) [Example 10, 1-(2-Fluorobenzoyl)-3-hydroxy-2-[3-(trifluoromethyl)phenyl]imidazolidin-4-one], the 50% inhibitory concentration (IC50) at IDO1 [1] was less than 5 µM; on IDO1 [2], ≤ 5 µM and 1 to 5 µM.

Consider `O=C1CN(C(=O)c2c(F)cc(-c3cccs3)cc2F)C(c2cccc(Br)c2)N1O` (stereo not shown) [Example 120, 2-(3-Bromophenyl)-1-[2,6-difluoro-4-(2-thienyl)benzoyl]-3-hydroxy-imidazolidin-4-one], for which the values for the IC50 at IDO1 [1] and on IDO1 [2] were less than 5 µM and no more than 1 µM, respectively.

Regarding `O=C1CN(C(=O)c2c(F)cccc2F)C(c2cccc(C(F)(F)F)c2)N1O` (stereo not shown) [Example 4, 1-(2,6-Difluorobenzoyl)-3-hydroxy-2-[3-(trifluoromethyl)phenyl]imidazolidin-4-one], the results for the IC50 on IDO1 [1] and on IDO1 [2] were less than 5 µM and no more than 1 µM, respectively.

On to `O=C1CN(C(=O)c2cccc(Cl)c2Cl)C(c2cccc(Br)c2)N1O` (stereo not shown) [Example 35, 2-(3-Bromophenyl)-1-(2,3-dichlorobenzoyl)-3-hydroxy-imidazolidin-4-one], for which the IC50 is less than 5 µM at IDO1 [1] and no more than 1 µM at IDO1 [2].

Turning to `O=C1CN(C(=O)c2ccccc2F)C(c2ccc(F)c(Cl)c2)N1O` (stereo not shown) [Example 51, 2-(3-Chloro-4-fluoro-phenyl)-1-(2-fluorobenzoyl)-3-hydroxy-imidazolidin-4-one], the IC50 on IDO1 [1] is less than 5 µM; at IDO1 [2] it was no more than 1 µM.

With `O=C1CN(C(=O)c2ccccc2F)C(c2cccc(Br)c2)N1O` (stereo not shown) [Example 33, 2-(3-Bromophenyl)-1-(2-fluorobenzoyl)-3-hydroxy-imidazolidin-4-one], the concentration for half-maximal inhibition (IC50) on IDO1 [1] was less than 5 µM; on IDO1 [2], no more than 1 µM.

Consider `C[C@@H](c1ccccc1)N1CC(=O)N(O)C1c1cccc(Br)c1` (single isomer, unassigned) [Example 139b], for which the IC50 at IDO1 [1] was less than 5 µM. For the same compound, on IDO1 [2], the “relative activity of separated isomers” value is “most active isomer” and the IC50 was no more than 1 µM.

As for `O=C1CN(C(=O)c2ccccc2Cl)C(c2cccc(C(F)(F)F)c2)N1O` (stereo not shown) [Example 2, 1-(2-Chlorobenzoyl)-3-hydroxy-2-[3-(trifluoromethyl)phenyl]imidazolidin-4-one], the half-maximal inhibitory concentration (IC50) on IDO1 [1] was less than 5 µM; at IDO1 [2], ≤ 5 µM and 1 to 5 µM.

For `O=C1CN(C(=O)c2c(F)cccc2Cl)C(c2ccc(Cl)c(C(F)(F)F)c2)N1O` (stereo not shown) [Example 7, 1-(2-Chloro-6-fluoro-benzoyl)-2-[4-chloro-3-(trifluoromethyl)phenyl]-3-hydroxy-imidazolidin-4-one], the half-maximal inhibitory concentration (IC50) on IDO1 [1] was less than 5 µM; on IDO1 [2], ≤ 5 µM and 1 to 5 µM.

Consider `CS(=O)(=O)NCc1cc(F)c(C(=O)N2CC(=O)N(O)C2c2cccc(Br)c2)c(F)c1` (stereo not shown) [Example 130, N-[[4-[2-(3-bromophenyl)-3-hydroxy-4-oxo-imidazolidine-1-carbonyl]-3,5-difluoro-phenyl]methyl]methanesulfonamide], for which the IC50 at IDO1 [2] was no more than 1 µM.

`CC(C)c1cc(C(=O)N2CC(=O)N(O)C2c2cccc(Br)c2)no1` (stereo not shown) [Example 96, 2-(3-Bromophenyl)-3-hydroxy-1-(5-isopropylisoxazole-3-carbonyl)imidazolidin-4-one]: the IC50 on IDO1 [2] is ≤ 5 µM and 1 to 5 µM.

`O=C1CN(C(=O)c2c(F)cc(-c3ccc(F)s3)cc2F)C(c2cccc(Br)c2)N1O` (stereo not shown) [Example 121, 2-(3-Bromophenyl)-1-[2,6-difluoro-4-(5-fluoro-2-thienyl)benzoyl]-3-hydroxy-imidazolidin-4-one]: the 50% inhibitory concentration (IC50) at IDO1 [2] is ≤ 5 µM and 1 to 5 µM.

Regarding `O=C1CN(C(=O)c2c(F)cccc2Cl)C(c2ccc(F)c(Br)c2)N1O` (single isomer, unassigned) [Example 143b, 2-(3-bromo-4-fluoro-phenyl)-1-(2-chloro-6-fluoro-benzoyl)-3-hydroxy-imidazolidin-4-one], on IDO1 [2], the “relative activity of separated isomers” value is recorded as “most active isomer” and the IC50 was no more than 1 µM.

For `O=C1CN(C(=O)c2ccccc2)C(c2cccc(Br)c2)N1O` (single isomer, unassigned) [Example 63b, 1-benzoyl-2-(3-bromophenyl)-3-hydroxy-imidazolidin-4-one], the IC50 on IDO1 [2] was ≤ 5 µM and 1 to 5 µM.

On to `O=C1CN(C(=O)c2ccccc2)C(c2cccc(Br)c2)N1O` (single isomer, unassigned) [Example 63a, 1-benzoyl-2-(3-bromophenyl)-3-hydroxy-imidazolidin-4-one], for which the half-inhibitory concentration (IC50) on IDO1 [2] was no more than 1 µM.

On to `CS(=O)(=O)N1CCC(C(=O)N2CC(=O)N(O)C2c2cccc(Br)c2)CC1` (stereo not shown) [Example 100, 2-(3-Bromophenyl)-3-hydroxy-1-(1-methylsulfonylpiperidine-4-carbonyl)imidazolidin-4-one], for which the IC50 at IDO1 [2] is ≤ 5 µM and 1 to 5 µM.

For `CC(c1c(F)cccc1F)N1CC(=O)N(O)C1c1cccc(Br)c1` (stereo not shown) [Example 141a, 2-(3-Bromophenyl)-1-[1-(2,6-difluorophenyl)ethyl]-3-hydroxy-imidazolidin-4-one], on IDO1 [2], the “relative activity of separated isomers” value is listed as “less active isomer”.

In the case of `CS(=O)(=O)NCC#Cc1cc(F)c(C(=O)N2CC(=O)N(O)C2c2cccc(Br)c2)c(F)c1` (stereo not shown) [Example 110, N-[3-[4-[2-(3-bromophenyl)-3-hydroxy-4-oxo-imidazolidine-1-carbonyl]-3,5-difluoro-phenyl]prop-2-ynyl]methanesulfonamide], at IDO1 [2], the IC50 is no more than 1 µM.

Consider `Cc1ccccc1C(=O)N1CC(=O)N(O)C1c1cccc(Br)c1` (stereo not shown) [Example 20, 2-(3-Bromophenyl)-3-hydroxy-1-(2-methylbenzoyl)imidazolidin-4-one], for which the concentration for half-maximal inhibition (IC50) on IDO1 [2] was ≤ 5 µM and 1 to 5 µM.
